Results published in EP0726072A2, “Composition for the treatment of hypertension and congestive heart failure, containing an angiotensin II antagonist and an endopeptidase inhibitor” (BRISTOL-MYERS SQUIBB COMPANY, priority 1995, dated 1996).

Tested on: cardiomyopathic hamsters
Experiment: Cardiovascular effects in conscious cardiomyopathic hamsters with compensated heart failure
Assay type: in vivo, hamsters of the BIO TO-2 strain
Details: for left ventricular end diastolic pressure, effect in words / left ventricular systolic pressure, effect in words: summary of the discussion, up to 90 minutes after last treatment
Description: The studies described in this experiment were conducted in male hamsters of the BIO TO-2 strain when they were approximately 260 days of age and weighed on average 115 g. These animals develop a genetic form of cardiomyopathy that progresses uniformly among animals through different stages of heart failure. By 240 - 300 days of age the cardiomyopathic hamsters are characterized (as compared with control hamsters) by low mean arterial pressure, a 40% reduction in cardiac output and a decrease in renal blood flow. They display elevated cardiac filling pressure, depressed ventricular function, increased peripheral vascular resistance and have an 8-10-fold increase in plasma atrial natriuretic peptide concentration.
The experiments were conducted in conscious, unrestrained, cardiomyphathic hamsters three hours after placement of cardivascular catheters using brief anesthesia. The catheters allowed measurement of mean arterial pressure, left ventricular end diastolic pressure, left ventricular systolic pressure and heart rate, and provided a means for the administration of agents intravenously.
In this series of experiments baseline measurements of left ventricular end diastolic pressure, left ventricular systolic pressure and heart rate were determined in groups of conscious cardiomyopathic hamsters. Compounds or vehicle were administered intravenously, and measurements were repeated at 30-minute intervals up to 90 minutes after administration of the last agent. BMS 186295 was administered at 30 µmol/kg, i.v. (0.3 ml) followed by a continuous i.v. infusion at 1 µmol/kg per min (0.01 ml/min). BMS 186295 was prepared in 0.028 M potassium hydroxide and diluted to a final concentration of 0.17 M potassium hydroxide. Potassium hydroxide solution (0.17 M) was administered intravenously to the vehicle group at 0.3 ml followed by a continuous infusion at 0.01 ml/min. SQ 28603 was dissolved in 0.84% sodium bicarbonate and administered at 30 µmol/kg, i.v. This dose of SQ 28603 was previously shown to result in a doubling of plasma atrial natriuretic peptide concentration within 90 minutes in this model. One group of cardiomyopathic hamsters received the combination of BMS 186295 and SQ 28603. In this group BMS 186295 was administered according to the same dosage regimen described above; 30 minutes after the bolus injection of BMS 186295, SQ 28603 was administered at 30 µmol/kg, i.v.
Differences in age, body weight and baseline values among groups were evaluated by analysis of variance. Differences in changes from baseline among groups were evaluated by analysis of covariance with repeated measures and contrasts. The baseline value for each variable was used as the covariate. The level of significance was taken at P < 0.05. All data are expressed as mean ± standard error of the mean.

[1] = 30′, BMS 186295 30 µmol/kg i.v. + 1 µmol/kg per min, SQ 28603 30 µmol/kg i.v.
[2] = 60′, BMS 186295 30 µmol/kg i.v. + 1 µmol/kg per min, SQ 28603 30 µmol/kg i.v.
[3] = 90′, BMS 186295 30 µmol/kg i.v. + 1 µmol/kg per min, SQ 28603 30 µmol/kg i.v.
[4] = 30 minutes after last treatment, BMS 186295 30 µmol/kg i.v. + 1 µmol/kg per min, SQ 28603 30 µmol/kg i.v.
[5] = 60 minutes after last treatment, BMS 186295 30 µmol/kg i.v. + 1 µmol/kg per min, SQ 28603 30 µmol/kg i.v.
[6] = 90 minutes after last treatment, BMS 186295 30 µmol/kg i.v. + 1 µmol/kg per min, SQ 28603 30 µmol/kg i.v.
[7] = table line headed 'BMS 186295 SQ 28603', between Baseline and 30′ (time of treatment)

Q: How did the “Heart Rate” value [1] turn out when `O=C(O)CCNC(=O)C(CS)Cc1ccccc1` (racemic) [SQ 28603, (±)-N-[2-(mercaptomethyl)-1-oxo-3-phenylpropyl]-β-alanine] was run?
A: Its value is 381 ± 9 beats/min.

Q: What about the “Left Ventricular End Diastolic Pressure” value [1] of the same molecule?
A: The value was 14 ± 2 mm Hg.

Q: What about the “Left Ventricular Systolic Pressure” value [1] of the same molecule?
A: Its value is 109 ± 5 mm Hg.

Q: What about the “Heart Rate” value [2] of the same molecule?
A: The value was 366 ± 9 beats/min.

Q: And the “Left Ventricular End Diastolic Pressure” value [2]?
A: Its value is 17 ± 3 mm Hg.

Q: And the “Left Ventricular Systolic Pressure” value [2]?
A: Its value is 105 ± 4 mm Hg.

Q: What about the “Heart Rate” value [3] of the same molecule?
A: The value was 378 ± 8 beats/min.

Q: What about the “Left Ventricular End Diastolic Pressure” value [3] of the same molecule?
A: The value was 16 ± 3 mm Hg.

Q: What about the “Left Ventricular Systolic Pressure” value [3] of the same molecule?
A: The value was 105 ± 5 mm Hg.

Q: What about the “Heart Rate, Change From Baseline” value [4] of the same molecule?
A: Its value is 3 ± 8 mm Hg.

Q: And the “Left Ventricular End Diastolic Pressure, Change From Baseline” value [4]?
A: Its value is 4 ± 1 mm Hg.

Q: What about the “Left Ventricular Systolic Pressure, Change From Baseline” value [4] of the same molecule?
A: Its value is -8 ± 1 mm Hg.

Q: What about the “Heart Rate, Change From Baseline” value [5] of the same molecule?
A: The value was -13 ± 12 mm Hg.

Q: And the “Left Ventricular End Diastolic Pressure, Change From Baseline” value [5]?
A: Its value is -1 ± 2 mm Hg.

Q: What about the “Left Ventricular Systolic Pressure, Change From Baseline” value [5] of the same molecule?
A: Its value is -12 ± 3 mm Hg.

Q: And the “Heart Rate, Change From Baseline” value [6]?
A: The value was -1 ± 9 mm Hg.

Q: What about the “Left Ventricular End Diastolic Pressure, Change From Baseline” value [6] of the same molecule?
A: Its value is -2 ± 1 mm Hg.

Q: And the “Left Ventricular Systolic Pressure, Change From Baseline” value [6]?
A: Its value is -12 ± 2 mm Hg.

Q: What about the “Heart Rate” value (Baseline, before treatment) of the same molecule?
A: The value was 378 ± 12 beats/min.

Q: What about the “Left Ventricular End Diastolic Pressure” value (Baseline, before treatment) of the same molecule?
A: The value was 18 ± 3 mm Hg.

Q: What about the “Left Ventricular Systolic Pressure” value (Baseline, before treatment) of the same molecule?
A: Its value is 117 ± 5 mm Hg.

Q: What about the “left ventricular end diastolic pressure, effect in words” value of the same molecule?
A: The value was “smaller decreases”.

Q: What about the “left ventricular systolic pressure, effect in words” value of the same molecule?
A: The value was “smaller decreases”.

Q: And the “Heart Rate” value [7]?
A: Its value is 380 ± 7 beats/min.

Q: And the “Left Ventricular End Diastolic Pressure” value [7]?
A: The value was 14 ± 3 mm Hg.

Q: What about the “Left Ventricular Systolic Pressure” value [7] of the same molecule?
A: Its value is 108 ± 5 mm Hg.

Q: For `CCCCC1=NC2(CCCC2)C(=O)N1Cc1ccc(-c2ccccc2-c2nnn[nH]2)cc1` [BMS 186295, 2-butyl-6,7,8,9-tetrahydro-3-[[2'-(1H-tetrazol-5-yl)[1,1'-biphenyl]-4-yl]-methyl]-1,3-diazaspiro[4.4]nonan-4-one], which “Heart Rate” value [1] is on record?
A: Its value is 363 ± 20 beats/min.

Q: And the “Left Ventricular End Diastolic Pressure” value [1]?
A: Its value is 16 ± 2 mm Hg.

Q: What about the “Left Ventricular Systolic Pressure” value [1] of the same molecule?
A: The value was 114 ± 2 mm Hg.

Q: What about the “Heart Rate” value [2] of the same molecule?
A: Its value is 367 ± 18 beats/min.

Q: And the “Left Ventricular End Diastolic Pressure” value [2]?
A: Its value is 16 ± 2 mm Hg.

Q: What about the “Left Ventricular Systolic Pressure” value [2] of the same molecule?
A: Its value is 111 ± 2 mm Hg.

Q: And the “Heart Rate” value [3]?
A: The value was 369 ± 28 beats/min.

Q: And the “Left Ventricular End Diastolic Pressure” value [3]?
A: Its value is 18 ± 3 mm Hg.

Q: And the “Left Ventricular Systolic Pressure” value [3]?
A: The value was 112 ± 5 mm Hg.

Q: And the “Left Ventricular End Diastolic Pressure, Change From Baseline” value [4]?
A: Its value is -1 ± 1 mm Hg.

Q: And the “Left Ventricular Systolic Pressure, Change From Baseline” value [4]?
A: Its value is 2 ± 2 mm Hg.

Q: What about the “Left Ventricular End Diastolic Pressure, Change From Baseline” value [5] of the same molecule?
A: The value was -1 ± 1 mm Hg.

Q: And the “Left Ventricular Systolic Pressure, Change From Baseline” value [5]?
A: Its value is -1 ± 2 mm Hg.

Q: And the “Left Ventricular End Diastolic Pressure, Change From Baseline” value [6]?
A: The value was 1 ± 2 mm Hg.

Q: And the “Left Ventricular Systolic Pressure, Change From Baseline” value [6]?
A: Its value is 1 ± 5 mm Hg.

Q: What about the “Heart Rate” value (Baseline, before treatment) of the same molecule?
A: Its value is 338 ± 16 beats/min.

Q: What about the “Left Ventricular End Diastolic Pressure” value (Baseline, before treatment) of the same molecule?
A: The value was 17 ± 2 mm Hg.

Q: What about the “Left Ventricular Systolic Pressure” value (Baseline, before treatment) of the same molecule?
A: Its value is 112 ± 2 mm Hg.

Q: What about the “left ventricular end diastolic pressure, effect in words” value of the same molecule?
A: The value was “no significant effects”.

Q: What about the “left ventricular systolic pressure, effect in words” value of the same molecule?
A: The value was “no significant effects”.

Q: What about the “Heart Rate” value [7] of the same molecule?
A: Its value is 364 ± 14 beats/min.

Q: What about the “Left Ventricular End Diastolic Pressure” value [7] of the same molecule?
A: The value was 18 ± 2 mm Hg.

Q: And the “Left Ventricular Systolic Pressure” value [7]?
A: The value was 111 ± 1 mm Hg.
